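Results reflect a 48-hour exposure of cells in 96-well plates to compound at five concentrations. The concentration for 50% growth inhibition is given as GI50.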 Activity calls are given as the source filed them. Rule as the data show it: active = GI50 up to about 1.1 µM and inactive = higher.
Key:
Test in all cases: NCI anticancer screen, dose series, 48 h
[1] = tested on: UO-31
[2] = tested on: A498
[3] = tested on: OVCAR-5
[4] = tested on: HOP-62
[5] = tested on: SK-MEL-2
[6] = tested on: ACHN
[7] = tested on: NCI-H460
[8] = tested on: NCI-H23
[9] = tested on: MOLT-4
[10] = tested on: HT-29
[11] = tested on: KM12
[12] = tested on: MDA-MB-435
[13] = tested on: NCI-H226
[14] = tested on: SF-295
[15] = tested on: SK-OV-3
[16] = tested on: OVCAR-3
[17] = tested on: HCT-116
[18] = tested on: SK-MEL-28
[19] = tested on: SW-620
[20] = tested on: CCRF-CEM
[21] = tested on: LOX IMVI
[22] = tested on: MDA-N
[23] = tested on: 786-0
[24] = tested on: UACC-62
[25] = tested on: PC-3
[26] = tested on: COLO 205
[27] = tested on: CAKI-1
[28] = tested on: A549
[29] = tested on: SR
[30] = tested on: RPMI-8226
[31] = tested on: HL-60
[32] = tested on: TK-10
[33] = tested on: SF-268
[34] = tested on: SNB-19
[35] = tested on: SN12C
[36] = tested on: OVCAR-4
[37] = tested on: UACC-257
[38] = tested on: EKVX
[39] = tested on: DU-145
[40] = tested on: IGROV-1
[41] = tested on: Hs-578T
[42] = tested on: SF-539
[43] = tested on: HOP-92
[44] = tested on: HCT-15
[45] = tested on: BT-549
[46] = tested on: U-251
[47] = tested on: OVCAR-8
[48] = tested on: NCI/ADR-RES
[49] = tested on: K562
[50] = tested on: RXF 393
[51] = tested on: M14
[52] = tested on: NCI-H522
[53] = tested on: T47D
[54] = tested on: Malme-3M
[55] = tested on: SK-MEL-5
[56] = tested on: MDA-MB-231

Measured: GI50

Cc1ccc(-n2cc(-c3ccc(Cl)cc3)c3c(N/N=C4\SCC(=O)N4C)ncnc32)cc1
inactive: [1] 46.3 µM | [2] 11.5 µM | [3] 45.4 µM | [4] 9.14 µM | [5] 2.48 µM | [6] 7.36 µM | [7] 4.31 µM | [8] 3.9 µM | [9] 38.9 µM | [10] 12.3 µM | [11] 7.96 µM | [12] 4.23 µM | [13] 7.35 µM | [14] 2.67 µM | [15] 2.54 µM | [16] 10.8 µM | [17] 4.59 µM | [18] 2.44 µM | [19] 16.3 µM | [20] > 100 µM | [21] 5.64 µM | [22] 5.19 µM | [23] 3.39 µM | [24] 3.44 µM | [25] 2.72 µM | [26] 4.09 µM | [27] 4.23 µM | [28] 4.72 µM | [29] 20.7 µM | [30] 12.9 µM | [31] > 100 µM | [32] 2.64 µM | [33] 7.05 µM | [34] 9.59 µM | [35] 5.6 µM | [36] 2.48 µM | [37] 4.66 µM | [38] 18.3 µM | [39] > 100 µM | [40] 14.8 µM | [41] 3.59 µM | [42] 12 µM | [43] 2.62 µM | [45] 15.6 µM | [46] 6.71 µM | [47] 5.09 µM | [48] 6.65 µM | [49] 5 µM | [50] 7.18 µM | [51] 4.78 µM | [52] 5.27 µM | [53] 91.4 µM | [54] 3.31 µM | [55] 3.81 µM | [56] 4.99 µM
59.3 µM: [44]
